The text below walks through data of patent publication US6962931B2, “Self-emulsifying formulations of cholesteryl ester transfer protein inhibitors” (Pfizer Inc., priority 2001, dated 2005).

The data set can be described thus: Microsolubility estimate by repeated addition of vehicle. In kind it is physicochemical. Particulars: thermodynamic from solid, read-out: Microsolubility. The protocol: For CETP inhibitors where quantities were limited, an estimate of solubility was obtained by addition of vehicle to a known quantity of the compound and mixing in an ultrasonicator bath for 90 minutes, followed by overnight equilibration at ambient temperature. Addition of vehicle was repeated until a solution was achieved.
For CETP inhibitors where quantities were limited or the samples were amorphous solids, an estimate of solubility was obtained by addition of vehicle to a known quantity of the compound and mixing in an ultrasonicator bath for 90 minutes, followed by overnight equilibration at ambient temperature. Addition of vehicle was repeated until a solution was achieved. From the total volume of vehicle added to solubilize the CETP inhibitor compound, the solubility value, or so-called microsolubility, was calculated by the equation: Weight of sample (mgA)/vehicle volume (mL)=Microsolubility (mgA/mL)

The mark [1] stands for this setting: Cremophor EL, organic solvent or mixture.
[2] abbreviates: Crodamol GTCC/Capmul MCM/Polysorbate 80 (40/40/20), oil or lipid.
Setting [3] is: Corn, Safflower, Soybean oils, oil or lipid.
Where [4] appears, read: PEG 400, organic solvent or mixture.

In brackets after ≈: the same amount, converted by molar mass. Read-outs that look alike come from different tables or passages of the source.

On to `COC(=O)N(Cc1cc(C(F)(F)F)cc(C(F)(F)F)c1)[C@H]1CC(C2CC2)N(C(=O)OC(C)C)c2ccc(C(F)(F)F)cc21` (stereo in doubt) [Compound G, [2R,4S] 4-[(3,5-Bis-trifluoromethyl-benzyl)-methoxycarbonyl-amino]-2-cyclopropyl-6-trifluoromethyl-3,4-dihydro-2H-quinoline-1-carboxylic acid isopropyl ester], for which the Solubility under setting [1] was over 300 mg/mL; the Solubility under setting [2] was over 300 mg/mL; the Solubility (Olive oil, oil or lipid) was over 300 mg/mL; the Solubility (Sesame oil, oil or lipid) is over 300 mg/mL.
Take `COC(=O)N(Cc1cc(C(F)(F)F)cc(C(F)(F)F)c1)[C@@H]1CC(C2CC2)N(C(=O)OC(C)C)c2ccc(C(F)(F)F)cc21` (stereo in doubt) [Compound H, [2S,4R] 4-[(3,5-Bis-trifluoromethyl-benzyl)-methoxycarbonyl-amino]-2-cyclopropyl-6-trifluoromethyl-3,4-dihydro-2H-quinoline-1-carboxylic acid isopropyl ester]: the Solubility reads like this: (Capmul MCM, oil or lipid) over 300 mg/mL; under setting [3], over 300 mg/mL; under setting [1], under 160 mg/mL; (Crodamol GTCC, oil or lipid) over 300 mg/mL; (Olive oil, oil or lipid) over 300 mg/mL; under setting [4], under 160 mg/mL.
Regarding `CCCOC(=O)N1c2ccc(C(F)(F)F)cc2[C@@H](N(Cc2cc(C(F)(F)F)cc(C(F)(F)F)c2)C(C)=O)CC1C1CC1` (stereo in doubt) [Compound M, [2R,4S] 4-[Acetyl-(3,5-bis-trifluoromethyl-benzyl)-amino]-2-cyclopropyl-6-trifluoromethyl-3,4-dihydro-2H-quinoline-1-carboxylic acid propyl ester], the Solubility (Capmul MCM, oil or lipid) is over 300 mg/mL; the Solubility (Miglyol 812, oil or lipid) was over 300 mg/mL; the Solubility (Olive oil, oil or lipid) is under 300 mg/mL; the Solubility (Safflower oil, oil or lipid) is under 300 mg/mL.
Regarding `CCCOC(=O)N1c2ccc(C(F)(F)F)cc2[C@@H](N(C=O)Cc2cc(C(F)(F)F)cc(C(F)(F)F)c2)CC1C1CC1` (stereo in doubt) [Compound N, [2R,4S] 4-[(3,5-Bis-trifluoromethyl-benzyl)-formyl-amino]-2-cyclopropyl-6-trifluoromethyl-3,4-dihydro-2H-quinoline-1-carboxylic acid propyl ester], the Solubility is over 300 mg/mL (Capmul MCM, oil or lipid); over 300 mg/mL (Miglyol 812, oil or lipid); over 300 mg/mL (Olive oil, oil or lipid); over 300 mg/mL (Safflower oil, oil or lipid).
On to `CCCOC(=O)N1c2ccc(C(F)(F)F)cc2[C@@H](N(Cc2cc(C(F)(F)F)cc(C(F)(F)F)c2)C(=O)OC)C[C@H]1CC` [Compound F, [2R,4S] 4-[(3,5-Bis-trifluoromethyl-benzyl)-methoxycarbonyl-amino]-2-ethyl-6-trifluoromethyl-3,4-dihydro-2H-quinoline-1-carboxylic acid propyl ester], for which the Solubility is under 100 mg/mL (Miglyol 812, oil or lipid) and 303 mg/mL (≈ 493 mM) (Olive oil, oil or lipid).
With `CCOC(=O)N1c2cc(C(F)(F)F)ccc2[C@@H](N(Cc2cc(C(F)(F)F)cc(C(F)(F)F)c2)C(=O)OC)C[C@H]1C` [Compound I, [2R,4S] 4-[(3,5-Bis-trifluoromethyl-benzyl)-methoxycarbonyl-amino]-2-methyl-7-trifluoromethyl-3,4-dihydro-2H-quinoline-1-carboxylic acid ethyl ester], the Solubility (Capmul MCM, oil or lipid) was over 20 mg/mL; the Solubility (Corn oil/Labrafil (80/20), oil or lipid) was under 20 mg/mL; the Solubility (Corn oil/Polysorbate 80 (80/20), oil or lipid) was over 20 mg/mL; the Solubility under setting [3] was under 20 mg/mL; the Solubility (Crodamol GTCC, oil or lipid) was over 20 mg/mL; the Solubility under setting [2] was over 20 mg/mL. The Solubility runs as follows: (Olive oil, oil or lipid) under 20 mg/mL; under setting [4], under 20 mg/mL; (Peanut oil, oil or lipid) under 20 mg/mL; (Sesame oil, oil or lipid) under 20 mg/mL.
Regarding `CCOC(=O)N1c2cc3c(cc2[C@H](N(Cc2cc(C(F)(F)F)cc(C(F)(F)F)c2)C(=O)OC)C[C@@H]1C)CCC3` [Compound J, [2S,4R] 4-[(3,5-Bis-trifluoromethyl-benzyl)-methoxycarbonyl-amino]-2-methyl-2,3,4,6,7,8-hexahydro-cyclopenta[g]quinoline-1-carboxylic acid ethyl ester], the Solubility was over 100 mg/mL (Capmul MCM, oil or lipid); over 100 mg/mL under setting [3]; over 100 mg/mL (Crodamol GTCC, oil or lipid); over 100 mg/mL under setting [2]; over 100 mg/mL (Olive oil, oil or lipid); 50 to 100 mg/mL (≈ 89.5 to 179 mM) under setting [4]. Also, the Solubility by setting is: (Peanut oil, oil or lipid) over 100 mg/mL; (Sesame oil, oil or lipid) over 100 mg/mL.
Turning to `CCOC(=O)N1c2ccc(C(F)(F)F)cc2[C@@H](N(Cc2cc(C(F)(F)F)cc(C(F)(F)F)c2)C(=O)OC)C[C@H]1C` [Compound L, [2R,4S] 4-[(3,5-Bis-trifluoromethyl-benzyl)-methoxycarbonyl-amino]-2-methyl-6-trifluoromethyl-3,4-dihydro-2H-quinoline-1-carboxylic acid ethyl ester], the Solubility (Capmul MCM, oil or lipid) was over 300 mg/mL; the Solubility (Miglyol 812, oil or lipid) was over 300 mg/mL; the Solubility (Olive oil, oil or lipid) is under 300 mg/mL; the Solubility (Safflower oil, oil or lipid) is over 300 mg/mL.
On to `CCOC(=O)N1c2ccc(C(F)(F)F)cc2[C@@H](N(Cc2cc(C(F)(F)F)cc(C(F)(F)F)c2)C(C)=O)C[C@H]1C` [Compound O, [2R,4S] 4-[Acetyl-(3,5-bis-trifluoromethyl-benzyl)-amino]-2-methyl-6-trifluoromethyl-3,4-dihydro-2H-quinoline-1-carboxylic acid ethyl ester], for which the Solubility was over 300 mg/mL (Capmul MCM, oil or lipid); over 300 mg/mL (Miglyol 812, oil or lipid); under 300 mg/mL (Olive oil, oil or lipid); under 300 mg/mL (Safflower oil, oil or lipid).
As for `CCOC(=O)N1c2ccc(C(F)(F)F)cc2[C@@H](N(C=O)Cc2cc(C(F)(F)F)cc(C(F)(F)F)c2)C[C@H]1CC` [Compound P, [2R,4S] 4-[(3,5-Bis-trifluoromethyl-benzyl)-formyl-amino]-2-ethyl-6-trifluoromethyl-3,4-dihydro-2H-quinoline-1-carboxylic acid ethyl ester], the Solubility is over 300 mg/mL (Capmul MCM, oil or lipid); over 300 mg/mL (Miglyol 812, oil or lipid); over 300 mg/mL (Olive oil, oil or lipid); under 300 mg/mL (Safflower oil, oil or lipid).
Regarding `CCOC(=O)N1c2ccc(C(F)(F)F)cc2[C@@H](N(C=O)Cc2cc(C(F)(F)F)cc(C(F)(F)F)c2)C[C@H]1C` [Compound Q, [2R,4S] 4-[(3,5-Bis-trifluoromethyl-benzyl)-formyl-amino]-2-methyl-6-trifluoromethyl-3,4-dihydro-2H-quinoline-1-carboxylic acid ethyl ester], the Solubility runs as follows: (Capmul MCM, oil or lipid) over 300 mg/mL; (Miglyol 812, oil or lipid) over 300 mg/mL; (Olive oil, oil or lipid) under 300 mg/mL; (Safflower oil, oil or lipid) under 300 mg/mL.
